The text below walks through data of PMC10610289, “Novel Baicalein-Derived Inhibitors of Plasmodium falciparum” (Pathogens, 2023).

Data set [1] relates to Plasmodium falciparum 3D7 (chloroquine-sensitive). Kind of data set: Antimalarial assay (IC50 determination), asexual blood stage, SYBR green. The class given is cell-based. The following applies: for antimalarial activity (in words): P. falciparum 3D7, highest tested concentration 25 µM; for IC50: P. falciparum 3D7, 72 h exposure, read-out: IC50. The protocol: (§1) Parasite lines used in the study were P. falciparum 3D7 (Pf3D7 Chloroquine-sensitive) and Plasmodium falciparum K1 (PfK1 Chloroquine-resistant) sourced from the Malaria Research and Reference Reagent Resource Center (MR4), ATCC, Manassas, VA, USA. FNDR-10132 was tested against a cross-resistance panel at Swiss TPH, Allschwil, Switzerland.
As per the modified protocol stated by Trager and Jensen, 1976, Plasmodium falciparum parasite lines (Pf3D7 and PfK1) were cultured. Plasmodium strains were maintained in RPMI-1640 medium at 3–5% hematocrit supplemented with 0.2% w/v glucose, 0.5% w/v AlbuMaxII, 0.2% w/v NaHCO3, and 30 μg/mL gentamycin, and, additionally, 15 μM hypoxanthine was added and incubated at 37 °C with 5% O2, 5% CO2, and 90% N2. After 24 h, the medium was changed. After attaining high parasitemia (6–8% mature stage parasite), the culture was sub-passaged with fresh human RBCs.
All tested compounds were dissolved in a DMSO solvent and a prepared stock solution of 10 mM. The reference drug, Chloroquine diphosphate, was dissolved in CRPMI. Working solutions were made from stock solution after diluting in a CRPMI medium during the experiment. The maximum concentration of DMSO used in this study was <1%. It had no parasiticidal effect.
The P. falciparum (0.8–1% parasitemia and 1% hematocrit) synchronous culture was exposed for 72 h (at 37 °C, 5% O2, 5% CO2, and 90% N2) to the serially diluted compound in 96-well plates. A total of 100 µL of RBCs lytic buffer (5 mM EDTA, 20 mM Tris pH 7.5, 0.08% Triton X-100, and 0.008% Saponin) containing the SYBR green 1-X final concentration was distributed to each well and incubated for one hour at room temp in the dark. The plates were read under a fluorescence reader at an excitation of 485 ± 20 nm and emission of 535 ± 25 nm. The IC50 values were calculated based on the DNA content of the parasite relative to its control. An inhibitory concentration of 50% (IC50) was determined using the MS-EXEL template.

The subject of a further data set is Dd2 (wt). The experiment in a line: Cross-resistance panel, Dd2 wt. The class given is cell-based, Plasmodium falciparum. The conditions noted are these: strain Dd2 wt. The protocol:
as §1

The test system of data set [2] is Dd2 ELQ300 (PfcytB Ile22Leu). Kind of data set: Cross-resistance panel, Dd2 ELQ300. The data set is classed as cell-based, Plasmodium falciparum. The protocol:
as §1

Data set [3] is described as follows: Microsomal stability assay. The data set is classed as in vitro ADME, mouse. The conditions noted are these: at 60 min, 1 µM, ß-NADPH, 37 °C. The protocol: Dipotassium hydrogen phosphate, Potassium dihydrogen phosphate, and formic acid were obtained from Merck, Rahway, NJ, USA. Methanol–acetonitrile was procured from Biosolve Chimie, Dieuze, France. Mouse liver microsomes, 20 mg/mL, were received from a third-party vendor in India. Imipramine HCl (catalog no. I0971) and Carbamazepine (catalog no. O0363) were procured from TCI, Gurugram, India. ß-NADPH (product code-99197) was procured from Sisco Research Laboratories, Mumbai, India.
The in vitro metabolic stability was determined in mouse liver microsomes. To prepare a mouse liver microsomes (MLM) homogenate, 100 µL of microsomes was resuspended in 100 mM phosphate buffer (0.607 g K2HPO4 and 0.212 g KH2PO4 dissolved in 50 mL of de-ionized water), achieving a working concentration of 0.625 mg/mL. Positive control (Imipramine) and test compounds (FNDR-10132, 10136, 10139, and 10999) were spiked individually into the MLM homogenate at a final concentration of 1 µm. To pre-incubate, they were placed in a water bath at 37 °C for 5 min. At least 30 µL was collected in triplicates (0 min samples), and the reaction was quenched using 90 µL of acetonitrile, which contained 500 ng/mL of Carbamazepine as an internal standard. Nicotinamide Adenine Dinucleotide Phosphate (NADPH) in phosphate buffer was added to the remaining MLM at a 1 mM final concentration and further incubated at 37 °C. At the indicated time intervals, 30 µL aliquots were sampled in triplicates, and the reaction was quenched with acetonitrile containing Carbamazepine as the internal standard. The samples were centrifugated for 10 min at 13,000 rpm, and the supernatant was separated for further analysis.
The analytical method for microsomal stability and protein binding assay is as follows: Chromatographic elution was achieved following isocratic flow on an X-Terra MS C18 50 × 4.6 mm, 2.5 µm, Waters, USA, maintained at 40 °C. The mobile phase contained aqueous 0.1% formic acid in water in solvent A and acetonitrile acidified with 0.1% formic acid in solvent B delivered at 0.300 mL/min. The flow was 15% from solvent A and 85% from solvent B for 4.5 min. A total of 7 μL of the sample was injected for the assay. […] Detection was performed through multiple reaction monitoring (MRM). The ion transitions are as follows: Imipramine, FNDR-10132, FNDR-10136, FNDR-10139, FNDR-10999, and IS at m/z 281.1→86.0, 355.2→115.1, 354.0→298.0, 350.0→186.1, 349→305.2, and m/z 237.0→194.0, respectively. An optimized cone voltage and collision energy were used to ionize the compounds. The MS parameters follow as follows: cone gas flow 50 (L/h); ion source temperature 150 °C; desolvation gas flow 900 (L/h); desolvation temperature 400 °C; and collision gas flow 0.10 (mL/min).

In the next data set the test system is Dd2 DSM265 (Pfdhodh). Kind of data set: Cross-resistance panel, Dd2 DSM265. The data set is classed as cell-based, Plasmodium falciparum. The protocol:
as §1

Data set [4] has as its system Dd2 DDD107498 (PfeEF2 Y186N). The experiment in a line: Cross-resistance panel, Dd2 DDD107498. The class given is cell-based, Plasmodium falciparum. The protocol:
as §1

The subject of data set [5] is Dd2 GNF156 (Pfcarl Ile1139Lys). The experiment in a line: Cross-resistance panel, Dd2 GNF156. The class given is cell-based, Plasmodium falciparum. The protocol: as §1
For data set [6], the system named is Dd2 390048 (Pfpi4k S743T). The experiment in a line: Cross-resistance panel, Dd2 390048. The class given is cell-based, Plasmodium falciparum. The protocol:
as §1

[7] abbreviates: Plasmodium falciparum, 3D7, 72 h.

Like-named read-outs stand apart in the source and are kept apart here.

As to `CCN(CC)c1ccc(-c2cc(=O)c3ccc(C(=O)O)cc3o2)cc1` [FNDR-11014], the “antimalarial activity (in words)” value in data set [1] is “inactive”. In data set [1] (setting [7]), the IC50 is greater than 25000 nM.
The like results for `O=C(O)c1ccc2c(=O)cc(-c3ccc(N4CCCCC4)cc3)oc2c1` [FNDR-11003] were, in that order, “inactive” and greater than 25000 nM.
Take `CCCCCCc1ccc(-c2cc(=O)c3cc(C(=O)O)ccc3o2)cc1` [FNDR-11009]: in data set [1] (setting [7]), the half-inhibitory concentration (IC50) worked out at 10400 nM.
On the same count and under the same terms, in the case of `O=C(NCc1cc(=O)c2c(O)c(O)c(O)cc2o1)c1ccc2ccc(Br)cc2c1` [FNDR-10150] it was 1120 nM.
With `CCCCOc1ccc(-c2cc(=O)c3ccc(C(=O)O)cc3o2)cc1` [FNDR-11013], in data set [1], the “antimalarial activity (in words)” value was “inactive”. Besides, the IC50 in data set [1] (setting [7]) is greater than 25000 nM.
With `CCCCOc1ccc(C(=O)NCc2cc(=O)c3c(O)c(O)c(O)cc3o2)cc1` [FNDR-10148], the IC50 in data set [1] was 920 nM; in data set [1] (setting [7]), 900 nM.
Regarding `O=C(O)c1ccc2oc(-c3ccc(N4CCOCC4)cc3)cc(=O)c2c1` [FNDR-10138], the IC50 in data set [1] (setting [7]) turned out to be 9650 nM.
With `COc1cc2[nH]c(C)c(-c3ccc(Oc4ccc(OC(F)(F)F)cc4)cc3)c(=O)c2cc1Cl` [ELQ300, reference compound], the “Fold shift IC50 rel. Dd2” value in the data set with Dd2 (wt) turned out to be 1.0; in data set [2] (strain Dd2 ELQ300), 9.7. The IC50 in the data set on Dd2 (wt) was 6.14 nM; in data set [2] (strain Dd2 ELQ300, PfcytB Ile22Leu, read-out: IC50), 59.7 nM.
As for `CCCCCCCCCCCc1cc(=O)c2c(O)c(O)c(O)cc2o1` [FNDR-10142], in data set [1] (setting [7]), the half-inhibitory concentration (IC50) came to 400 nM.
Still for that read-out and setting: under `O=c1cc(-c2ccc(N3CCOCC3)cc2)oc2cc(O)c(O)c(O)c12` [FNDR-10133] stands 1290 nM.
In the case of `CCN(CC)c1ccc(-c2cc(=O)c3cc(C(=O)O)ccc3o2)cc1` [FNDR-11001], the IC50 in data set [1] was 10200 nM; in data set [1] (setting [7]), roughly 10000 nM.
As to `O=C(O)c1ccc2oc(-c3ccc(C4CCCCC4)cc3)cc(=O)c2c1` [FNDR-10999], the values for the IC50 in data set [1] and in data set [1] (setting [7]) were 10100 nM and roughly 10000 nM, respectively. Also, in data set [3], the “Microsomal Stability (Mouse)” value was roughly 32.19 ± 0.29%.
In the case of `O=C(CCCCCc1ccccc1)NCc1cc(=O)c2c(O)c(O)c(O)cc2o1` [FNDR-10149], the IC50 in data set [1] (setting [7]) came out at 2740 nM.
Consider `O=C(O)c1ccc2c(=O)cc(-c3ccc(C4CCCCC4)cc3)oc2c1` [FNDR-11012], for which the “antimalarial activity (in words)” value in data set [1] was “inactive”. Moreover, the IC50 in data set [1] (setting [7]) was greater than 25000 nM.
As for `Cc1cc(Nc2ccc(S(F)(F)(F)(F)F)cc2)n2nc(C(C)(F)F)nc2n1` [DSM265, reference compound], the IC50 in the data set on Dd2 (wt) (Plasmodium falciparum) was found to be 6.23 nM; in the data set with Dd2 DSM265 (Pfdhodh) (Plasmodium falciparum) it was 150 nM. Moreover, the “Fold shift IC50 rel. Dd2” value in the data set on Dd2 (wt) was found to be 1.0; in the data set with Dd2 DSM265 (Pfdhodh) (strain Dd2 DSM265) it was 24.
Consider `CCCCOc1ccc(-c2cc(=O)c3cc(C(=O)O)ccc3o2)cc1` [FNDR-11000], for which the “antimalarial activity (in words)” value in data set [1] is listed as “none of the compounds were active”. Further, the IC50 in data set [1] (setting [7]) was greater than 25000 nM.
In the case of `O=c1cc(-c2ccc(N3CCCCC3)cc2)oc2cc(O)c(O)c(O)c12` [FNDR-10136], the IC50 in data set [1] (setting [7]) turned out to be 100 nM. The “Microsomal Stability (Mouse)” value in data set [3] is given as roughly 19.05 ± 1.26%.
In the case of `O=C(O)c1ccc2oc(-c3ccc(N4CCCCC4)cc3)cc(=O)c2c1` [FNDR-10139], the IC50 in data set [1] (setting [7]) came out at 4060 nM. The “Microsomal Stability (Mouse)” value in data set [3] was roughly 29.92 ± 5.46%.
As for `O=C(NCCN1CCCC1)c1cc(-c2ccc(CN3CCOCC3)cc2)nc2ccc(F)cc12` [DDD107498, reference compound], the IC50 in the data set on Dd2 (wt) (Plasmodium falciparum) was determined as 0.257 nM; in data set [4] (Plasmodium falciparum, DD2), 1860 nM. The “Fold shift IC50 rel. Dd2” value is 1.0 in the data set with Dd2 (wt) and 7247 in data set [4] (strain Dd2 DDD107498).
With `O=C(O)c1ccc2oc(-c3ccccc3)cc(=O)c2c1` [FNDR-10130], the “antimalarial activity (in words)” value in data set [1] is “no activity”. The IC50 in data set [1] (setting [7]) was greater than 25000 nM.
As for `CC1(C)c2nc(-c3ccc(F)cc3)c(Nc3ccc(F)cc3)n2CCN1C(=O)CN` [GNF156, reference compound], the IC50 with Dd2 (wt) (Plasmodium falciparum) stood at 9.12 nM; in data set [5] (Plasmodium falciparum, DD2) it was 2160 nM. Moreover, the “Fold shift IC50 rel. Dd2” value with Dd2 (wt) came to 1.0; in data set [5] (strain Dd2 GNF156), 237.
For `COc1cccc(CCC(=O)NCc2cc(=O)c3c(O)c(O)c(O)cc3o2)c1` [FNDR-10146], the IC50 in data set [1] (setting [7]) is 2930 nM.
Consider `O=C(CCCc1ccccc1)NCc1cc(=O)c2c(O)c(O)c(O)cc2o1` [FNDR-10143], for which the IC50 in data set [1] (setting [7]) is 2480 nM.
Still for that read-out and setting: in the case of `O=C(O)c1ccc2oc(-c3ccc(-c4ccccc4)cc3)cc(=O)c2c1` [FNDR-10137] it was 13200 nM.
`CS(=O)(=O)c1ccc(-c2cnc(N)c(-c3ccc(C(F)(F)F)nc3)c2)cc1` [MMV390048, reference compound]: the IC50 in the data set with Dd2 (wt) (Plasmodium falciparum) was 18.5 nM; in data set [6] (Plasmodium falciparum, DD2), 90.8 nM. The “Fold shift IC50 rel. Dd2” value with Dd2 (wt) came to 1.0; in data set [6] (strain Dd2 390048), 4.9.
On to `CS(=O)(=O)CCCOc1ccc(-c2cc(=O)c3cc(C(=O)O)ccc3o2)cc1` [FNDR-11096], for which the “antimalarial activity (in words)” value in data set [1] is on record as “none of the compounds were active”. For the same molecule, the IC50 in data set [1] (setting [7]) is greater than 25000 nM.
`O=c1cc(-c2ccccc2)oc2cc(O)c(O)c(O)c12` [baicalein]: the IC50 in data set [1] (setting [7]) was 32000 nM.
With `O=c1cc(-c2ccc(-c3ccccc3)cc2)oc2cc(O)c(O)c(O)c12` [FNDR-10131], the IC50 in data set [1] (setting [7]) is 220 nM.
